Laboratory results published in patent publication US20100069345A1, “Lanthanide-porphyrin complexes as anti-tumor agents” (priority 2005, published 2010).

Assays:
[1] = test system: human hepatocellular carcinoma cells (HepG2); assay: MTT cell viability assay, HepG2; format: cell-based
Text: Human cervical epitheloid carcinoma cells (HeLa), human hepatocellular carcinoma cells (HepG2 and Hep3B), human breast cancer cells (MCF-7), human coloadenocarcinoma cells (HCT-8), and normal human lung fibroblast cells (CCD-19Lu) were purchased from American Type Culture Collection (ATCC) Rockville, Md., USA. The human hepatocellular cancinoma cells QGY-7703, and the multi-drug resistant cell line QGY-TR50 derived from QGY-7703, were generously provided by Prof. Yong Xie (The Hong Kong University of Science and Technology, Hong Kong PRC). QGY-TR50 cells were isolated and cultured as described (J. Zhou, S. C. Cheng, D. Luo, Y. Xie Biochem. Biophys. Res. Commun. 2001, 280, 1237-1242). Human nasopharyngeal carcinoma cells (SUNE1 and its cisplatin-resistant variant—CNE2) were derived from poorly differentiated NPC in Chinese patients and were generously provided by Dr. S. W. Tsao (The University of Hong Kong, Hong Kong PRC). Cell culture flasks and 96-well microtitre plates were from Nalge Nunc Int. Culture medium, other medium constituents and phosphate buffer saline (PBS) were obtained by Gibco BRL Rockville, Md., USA. Cell Proliferation kit I (MTT) was purchased from Roche. Mannheim, Germany.

[2] = Stability by UV-visible in DMSO/Tris buffer; format: physicochemical; details: DMSO/Tris buffer solution (1:9), 24 h, room temperature; complex 1 3 μM, complex 2b 7 μM
Procedure: UV-visible experiments. The absorption spectra of 3 μM of complex 1 in DMSO/Tris buffer solution (1:9) were monitored for 24 h. […] The complex was monitored over 24 h at room temperature and about 23% decrease in the Soret band intensity was recorded without any significant spectral shift in both Soret and Q-bands (FIG. 5). The absorption spectra of 7 μM of complex 2b in DMSO/Tris buffer solution (1:9) were also monitored for 24 h.

HeLa cells = assay: FACS cell cycle analysis with PI staining; format: cell-based, human; details: 2 μM
Procedure: Instrumentation. All absorption spectra were recorded on a Perkin-Elmer Lambda 900 and Perkin-Elmer Fusion α-FP. Positive ion FAB mass spectra were recorded on a Finnigan MAT95 mass spectrometer. ^1HNMR spectra were recorded on Brucker DPX-300 or DPX-400 NMR spectrometers. Flow cytometric analysis was performed with a Coulter EPICS flow cytometer (Coulter, Miami, Fla.) equipped with 480 long, 525 band and 625 long pass mirrors. Samples were excited by 15 mW air-cool argon convergent laser at 488 nm. Fluorescence signal were manipulated with Coulter Elite 4.0 software (Coulter) and were analyzed by Winlist 1.04 and Modfit 5011 software (verity Software House, Topsham, Me.).
Fluorescence-Activated Cell Sortings (FACS). Cells in different phases of the cell cycle can be differentiated by the DNA content, which can be distinguished by FACS after staining the cells with propidium iodide (PI). Resting cells are said to be in the G0 phase of the cell cycle. Once the cell is instructed to divide, it enters the active phase of the cell cycle, which is consisted of G1, S, G2 and M phase. Treatment of cancer cells with cytotoxic agents may induce cell cycle arrest at a particular phase of the cell cycle. Flow cytometry with PI staining was performed in HeLa cells treated with complex 1 (2 μM) for 0, 6 h, 12 h, 18 h, 24 h, 36 h and 48 h. […]

Caspase 3 = assay: Western blotting analysis, caspase 3; format: cell-based, human; details: HeLa, 2 μM, 32 h
Procedure: Cells were washed in cold phosphate-buffered saline (PBS) at 4° C. and lysed in a buffer containing 0.05 M Tis.HCl (pH 7.5), 0.25 M NaCl, 0.005 M EDTA, 0.05 M NaF, 1 mM DTT and 1% Triton. Cell lysates were collected and the protein concentration of cell lysates was measured using a Protein detection kit (Bio-Rad). Equal amount of proteins was resolved in a 12% SDS-PAGE gel and transferred onto nitrocellulose membranes. The membrane was blocked with a blocking solution (1×TBS, 0.1% Tween-20 with 5% non-fat dry milk) at room temperature for 1 h, and washed three times with washing buffer (1×TBS, 0.1% Tween-20) for 5 min each. The membrane was then incubated with primary antibody (Caspase 3, Bid, PARP and β-Actin respectively) for overnight at 4° C. The membrane was washed three times with washing buffer for 5 min each before incubation with the corresponding secondary antibody (horse anti-mouse IgG or goat anti-rabbit IgG). Membrane was washed again and signals were detected using an ECL detection kit (Amersham Pharmacia Biotech) followed by the exposure to X-ray films (Fujifilm).
After treatment with complex 1 for different time intervals, the expressions of caspase 3, Bid and PARP were detected by the Western blotting analysis. […] Moreover, treatment with complex 1 leads to a reduction in the level of un-cleaved Bid.

[3] = test system: multi-drug resistant liver tumor cells (QGY-TR50); assay: Murine xenograft tumor model; format: in vivo, mouse; details: 10 mg/kg/day i.p. daily for 22 days, nude mice, vs control group
Procedure: The murine model for anti-tumor evaluation in vivo was the male BALB/c-nu/nu mouse originated from Charles River Laboratories, Inc. and the colony was maintained in the Laboratory Animal Unit, The University of Hong Kong. Mice were grafted in the left flank with QGY-TR50 cells subcutaneously. All of the experiments were carried out according to the guidelines of the Committee on the Use of Live Animals in Teaching and Research, The University of Hong Kong.
The anti-tumor effect of complex 1 was examined in the xenograft mice model. A complex 1 suspension was prepared by dissolving the complex in 1% EtOH and mixed with a solution containing 0.2% sodium carboxymethyl cellulose (Sigma) and 0.1% Tween 80 (Sigma) in PBS. A dose tolerance test was conducted to determine the appropriate dose ranges for complex 1. […] The dimensions of the tumors were measured twice weekly with calipers, and tumor volumes were estimated using two-dimensional measurements of length and width and calculated with the formula [l×(w)^2]×0.52 (l, length; w, width) according to described procedures (M. Guba, P. von Breitenbuch, M. Steinbauer, G. Koehl, S. Flegel, M. Hornung, C. J. Bruns, C. Zuelke, S. Farkas, M. Anthuber, K. W. Jauch, E. K. Geissler, Nat Med 2002, 8, 128-135). The weights of the mice were also recorded twice weekly throughout the course of treatment. […]

Substance: [Yb2(OEP)2](μ-OH)2 [Complex 1]
- IC50 ratio cisplatin/complex, HepG2 ([1]; IC50 of cisplatin divided by IC50 of complex): 22.7
- IC50 ([1]; MTT, 37° C., 48 h, mean ± SD): 210 ± 10 nM
- decrease in Soret band intensity [2]: about 23%
- change in proportion of cells in G0-G1, G2-M and S phase (HeLa cells; 0-48 h, PI staining): no observable change
- cells showing DNA fragmentation (HeLa cells; 48 h): more than 60%
- expression of caspase 3 (Caspase 3): decrease dramatically
- inhibition of the tumor volume [3]: 40%
